# Experimental data: PMC11400633, “Peptides inhibiting the assembly of monomeric human L‐lactate dehydrogenase into catalytically active homotetramer decrease the synthesis of lactate in cultured cells” (Protein Science : A Publication of the Protein Society, 2024)
# *1 amine or outer side, *2 acyl side, *3 side chain or, on linkers, in order; H or OH if unused. [ ]: non-standard residue; d: D form. The star is where a group is joined. d(βAsp) = O=C(O)[C@@H](CC(=O)[*:2])N[*:1]; βAsp = O=C(O)[C@H](CC(=O)[*:2])N[*:1]; OBn = c1ccc(CO*)cc1
# Legend:
# monomeric human LDH‐A [1] = target: T1, monomeric human LDH‐A (Homo sapiens, UniProt P00338); assay: Inhibition by peptides of LDH-A activity gained on assembly of monomeric LDH-A into tetramer; format: biochemical; conditions: 80 μM peptide incubated 5 min with 6.2 nM monomeric LDH-A, 10 mM Tris-HCl + 10 mM BisTris pH 7.5, started with 125 μM β-NADH and 500 μM pyruvate, 25°C, A340, vs control with 1% DMSO, mean ± SD, n = 3
# T1 construct: made in house; host or cells: E. coli BL21(DE3), pET9a (NdeI/BamHI)
# Experimental: In particular, all the peptides were tested at 80 μM (final concentration), and the LDH activity detected in their presence was compared with the catalytic action observed with control samples devoid of any peptide. First, we decided to assay the octameric peptide TH1, the primary structure of which ([…]) is identical to the LDH‐A region spanning residues 295–302. […] Indeed, the catalytic action exerted by 6 nM tetrameric LDH‐A (in 10 mM Tris–HCl, pH 7.5, containing 150 mM NaCl) was determined as equal to 433 ± 11 and 452 ± 19 nM/s in the absence and in the presence of 80 μM TH1 octapeptide, respectively. Overall, this insensitivity along with the significant effect elicited by TH1 on monomeric LDH‐A indicate that the octapeptide inhibits the assembly of LDH‐A monomers into the corresponding, catalytically active, tetramer. To dissect the inhibition triggered by TH1 on monomeric LDH‐A, we decided to evaluate: (i) whether or not the two halves of the octapeptide, that is, GQNG and ISDL, are equally competent in inhibiting LDH‐A; (ii) the action of linear and cyclic peptides, containing or not D amino acids; and (iii) the effect, if any, triggered by the presence of protecting groups in the peptides to be assayed. It should be noted that to allow the cyclization of tetrapeptide GQNG while maintaining a terminal carboxylic group, the sequence was modified to GQND, while for the cyclization of ISDL while maintaining a terminal amino group, the sequence was modified into KSDL (Table 1).
# FIGURE 8 Inhibition exerted by linear and cyclic peptides on LDH‐A activity detected in vitro. […] The gray bars (in “a” and “d”) represent the activity observed in the presence of the same volume of DMSO (1%, v/v) carried to the assay mixtures by the peptides to be tested. (a–c) The effect, if any, of tetrameric peptides featuring the GQND primary structure (see also Table 1) on LDH‐A activity is shown. The inhibition exerted by the octameric peptide TH1 is also reported in “a.” The enzyme activity observed in the presence of linear or cyclic peptides is shown in “b” and “c”, respectively. (d) Extent of LDH‐A activity detected in the presence of linear or cyclic tetrapeptides featuring the KSDL primary structure. Error bars represent SD (n = 3). The experimental observations were compared by Student's t‐test. The ***, **, and * symbols denote p values lower than 0.001, 0.01, and […], respectively. (e) Simulation of the association between the TH2 peptide and monomeric LDH‐A. Predicted interactions between the cyclopeptide c[GQN‐isoD] (TH2) and the N‐terminal sequence Y^9[…]^19, as simulated by molecular dynamics in a box of explicit TIP3P water molecules; gray and red dotted lines represent hydrogen bonds and salt bridges, respectively.
# All the assays were performed at 25°C using a Cary 300 Bio spectrophotometer.
# MCF7 cells = assay: Colorimetric assay of lactate secretion by MCF7 cells (expressing LDH-A); format: cell-based, human
# Text: Having identified peptides able to interfere with the assembly of monomeric LDH‐A into catalytically active tetramer, we considered of interest to test the action of peptides against LDH‐A expressed in human cell lines. In particular, we analyzed the lactate secreted by cultured human cells exposed or not to the peptides better performing as inhibitors of LDH‐A in vitro, that is, TH1, TH2, and TH16. Moreover, we used two different cell lines exclusively expressing LDH‐A or LDH‐B, that is, MCF7 and BxPC3, respectively. In MCF7 cells, the [mRNALDH‐A]/[mRNALDH‐B] ratio is indeed equal to ca. 150 (Figure 9a), whereas in BxPC3 cells the messenger coding for LDH‐A was not detected (Figure 9a). Therefore, by comparing the decrease, if any, of the lactate concentration secreted by these two cell lines the selectivity of peptides acting against LDH‐A or LDH‐B can be conveniently estimated. When the MCF7 cell line is considered, the linear TH16 and the cyclic TH2 tetrapeptide performed equally, being both responsible for a concentration of secreted lactate 20% lower than that detected in their absence (Figure 9b). […] Accordingly, it seems likely that lipofectamine is effective in assisting the penetration of the TH16 and TH2 peptides into cells, with this action of lipofectamine being much weaker when dealing with a larger molecule, that is, an octapeptide.
# To evaluate the competence of peptides in inhibiting the action of LDH‐A in cultured cells, two human cell cultures were used: MCF7 and BxPC3, isolated from breast and pancreatic adenocarcinoma, respectively. Cultures were grown in DMEM (MCF7) or RPMI medium (BxPC3), supplemented with 100 U/ml penicillin/streptomycin, 2 mM glutamine and 10% (v/v) FBS. All the components of the media used for cell culture were obtained from Merck‐Millipore.
# The competence of peptides in inhibiting LDH in cultured cells was tested by assessing the concentration of lactate released by MCF7 and BxPC3 cell cultures. To this aim, cells were seeded in duplicate in 24‐wells plates (2 × 10^5/well) and let to adhere overnight; the culture medium was then replaced by Krebs‐Ringer buffer (300 μl/well). Stock solutions of peptides (8 mM in DMSO) were diluted in Krebs‐Ringer buffer to a final concentration of 640 μM and mixed with an equal volume of 4% (v/v, in Krebs‐Ringer buffer) Lipofectamine 2000 (Invitrogen). The final solution was thoroughly mixed, kept for 25 min at room temperature, and finally 100 μl were added to each plate well, obtaining a final peptide concentration equal to 80 μM. The concentration of lactate released in the Krebs–Ringer buffer was determined after 4 h of incubation at 37°C, using the colorimetric assay previously reported (Rossi et al., [2023]). Each experiment was performed in triplicate and included control samples consisting of untreated cell cultures exposed to the same final concentration of DMSO (1%, v/v) and Lipofectamine (0.5%, v/v) to which were exposed the samples treated with peptides.
# BxPC3 cells = assay: Colorimetric assay of lactate secretion by BxPC3 cells (expressing LDH-B); format: cell-based, human; conditions: BxPC3, 80 μM peptide with Lipofectamine 2000 (0.5% v/v), 1% DMSO, Krebs-Ringer buffer, 4 h, 37°C, n = 3
# Text: Having identified peptides able to interfere with the assembly of monomeric LDH‐A into catalytically active tetramer, we considered of interest to test the action of peptides against LDH‐A expressed in human cell lines. In particular, we analyzed the lactate secreted by cultured human cells exposed or not to the peptides better performing as inhibitors of LDH‐A in vitro, that is, TH1, TH2, and TH16. Moreover, we used two different cell lines exclusively expressing LDH‐A or LDH‐B, that is, MCF7 and BxPC3, respectively. In MCF7 cells, the [mRNALDH‐A]/[mRNALDH‐B] ratio is indeed equal to ca. 150 (Figure 9a), whereas in BxPC3 cells the messenger coding for LDH‐A was not detected (Figure 9a). Therefore, by comparing the decrease, if any, of the lactate concentration secreted by these two cell lines the selectivity of peptides acting against LDH‐A or LDH‐B can be conveniently estimated. When the MCF7 cell line is considered, the linear TH16 and the cyclic TH2 tetrapeptide performed equally, being both responsible for a concentration of secreted lactate 20% lower than that detected in their absence (Figure 9b). […] It should indeed be noted that the assays with cells were performed in the presence of lipofectamine (see Section 5). […] Accordingly, it seems likely that lipofectamine is effective in assisting the penetration of the TH16 and TH2 peptides into cells, with this action of lipofectamine being much weaker when dealing with a larger molecule, that is, an octapeptide.
# To evaluate the competence of peptides in inhibiting the action of LDH‐A in cultured cells, two human cell cultures were used: MCF7 and BxPC3, isolated from breast and pancreatic adenocarcinoma, respectively. […]
# The competence of peptides in inhibiting LDH in cultured cells was tested by assessing the concentration of lactate released by MCF7 and BxPC3 cell cultures. […] The concentration of lactate released in the Krebs–Ringer buffer was determined after 4 h of incubation at 37°C, using the colorimetric assay previously reported (Rossi et al., [2023]). […]
# monomeric human LDH‐A [2] = target: T1, monomeric human LDH‐A; assay: Steady-state kinetics of pyruvate reduction by monomeric LDH-A (assembled monomers); format: biochemical; conditions: variable β-NADH, 500 μM pyruvate, 7.6 nM monomer, pH 7.5, 25°C
# Experimental: (§1) To further characterize the catalytic action of monomeric LDH-A exposed to β-NADH and pyruvate, and therefore assembled into tetramer (cf. […] In addition, the kinetics of pyruvate reduction catalyzed by tetrameric LDH-A was assayed under the same conditions used for the monomeric enzyme. Structurally and functionally speaking, the availability of monomeric LDH-A does indeed provide an unprecedented and quite interesting tool to perform quantitative tests of the assembly of monomers into the corresponding catalytically active tetramer. […] In addition to this, the enzyme kinetic parameters were also determined testing reaction velocity as a function of β-NADH concentration, in the presence of 500 μM pyruvate. […] The continuous lines represent the best fit of the Michaelis-Menten equation to the experimental observations. […] The continuous lines represent the best fit of the Michaelis-Menten equation to the experimental observations. (c) Kinetic parameters determined by performing activity assays using monomeric or tetrameric LDH-A, at the indicated final concentrations. Under conditions of variable pyruvate concentration, β-NADH was always used at 125 μM. When reaction mixtures contained variable concentrations of the redox cofactor, pyruvate was invariably added at 500 μM. All the assays were performed at pH 7.5 (Tris-BisTris, 10 mM each.
# tetrameric LDH‐A = target: T2, tetrameric LDH‐A (Homo sapiens, UniProt P00338); assay: Steady-state kinetics of pyruvate reduction by tetrameric LDH-A; format: biochemical; conditions: variable β-NADH, 500 μM pyruvate, 1.9 nM tetramer, pH 7.5, 25°C
# T2 construct: made in house; host or cells: E. coli BL21(DE3), pET9a (NdeI/BamHI)
# Experimental: as §1
Inhibition (%) of LDH‐A activity (monomeric human LDH‐A [1]) [%],Substance,also measured
8 ± 4,c[Gly‐Gln‐Asn‐D‐isoAsp(OBn)] (head to tail) [TH11],
6 ± 3,c[Gly‐Gln‐Asn‐isoAsp(OBn)] (head to tail) [TH10],
7 ± 3,c[isoLys‐Ser‐Asp‐D‐Leu] (sidechain bridge or staple) [TH5],
16 ± 3,c[isoLys‐Ser‐Asp‐Leu] (sidechain bridge or staple) [TH4],
9 ± 2,cyclo(GQND(OBn)) (SMILES NC(=O)CC[C@@H]1NC(=O)CNC(=O)[C@H](CC(=O)OCc2ccccc2)NC(=O)[C@H](CC(N)=O)NC1=O) [TH15],
26 ± 1,cyclo(GQN[d(βAsp)]) (SMILES NC(=O)CC[C@@H]1NC(=O)CNC(=O)C[C@H](C(=O)O)NC(=O)[C@H](CC(N)=O)NC1=O) [TH3],
31 ± 3,cyclo(GQN[βAsp]) (SMILES NC(=O)CC[C@@H]1NC(=O)CNC(=O)C[C@@H](C(=O)O)NC(=O)[C@H](CC(N)=O)NC1=O) [TH2],"decrease of the concentration of secreted lactate (MCF7 cells; MCF7, 80 μM peptide with Lipofectamine 2000 (0.5% v/v), 1% DMSO, Krebs-Ringer buffer, 4 h, 37°C, colorimetric, n = 3, vs cells without peptide): 20%; effect on lactate production in the absence of lipofectamine (MCF7 cells; MCF7, peptide without lipofectamine): negligible and not significant effects; effect on lactate secretion (BxPC3 cells): no significant differences"
,β‐NADH,"K m for β‐NADH, monomeric LDH‐A (assembled monomers) (monomeric human LDH‐A [2]): 7.7 ± 1.1 µM; K m for β‐NADH, tetrameric LDH‐A (tetrameric LDH‐A): 9.0 ± 0.6 µM"
